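Cultured in 96-well plates, cells were exposed to test compound for 48 hours across five concentrations. At the GI50, growth is halved.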 Active and inactive are the calls of the source. No stated cut-off is given here; in the data, active = GI50 up to about 1.1 µM and inactive = higher.
Assays:
Experiment in all cases: DTP human tumour cell line panel, 48 h
[1] = test system: SNB-78
[2] = test system: DMS-273
[3] = test system: HOP-18
[4] = test system: DMS-114
[5] = test system: LXFL 529
[6] = test system: XF498
[7] = test system: DLD-1
[8] = test system: M19-MEL
[9] = test system: RXF 631

| SMILES | GI50 [1] | GI50 [2] | GI50 [3] | GI50 [4] | GI50 [5] | GI50 [6] | GI50 [7] | GI50 [8] | GI50 [9] |
| --- | --- | --- | --- | --- | --- | --- | --- | --- | --- |
| O=C1c2ccccc2C(=O)c2c1oc1cc(O)c(Cl)cc21 | 5.69 µM (inactive) | 2.41 µM (inactive) | 1.73 µM (inactive) | 2.23 µM (inactive) | 20.5 µM (inactive) | 7.41 µM (inactive) | 6.22 µM (inactive) | 0.177 µM (active) | – |
| O=[N+]([O-])c1ccc(C2CC(c3ccc(NCc4nc5ccccc5[nH]4)cc3)=NO2)cc1 (stereo not given) | – | 32.1 µM (inactive) | > 100 µM (inactive) | 11.4 µM (inactive) | 16.4 µM (inactive) | – | 45 µM (inactive) | 33.7 µM (inactive) | – |
| O=C1/C(=C/c2ccccc2)CN(C(=O)OCc2ccccc2)C/C1=C\c1ccccc1 | 14.8 µM (inactive) | 5 µM (inactive) | > 10 µM (inactive) | 11.2 µM (inactive) | – | 16.6 µM (inactive) | 3.63 µM (inactive) | 5.87 µM (inactive) | 16.9 µM (inactive) |
| C/C(=N\NS(=O)(=O)c1ccc([N+](=O)[O-])cc1)c1ccc[n+]([O-])n1 | 4.48 µM (inactive) | 0.764 µM (active) | 11.6 µM (inactive) | 1.77 µM (inactive) | 2.21 µM (inactive) | 2.64 µM (inactive) | 2.58 µM (inactive) | 2.04 µM (inactive) | – |
| CN(C)C(=O)OC(Cn1cncn1)c1ccc(Cl)cc1Cl (stereo not given) | > 100 µM (inactive) | > 100 µM (inactive) | > 100 µM (inactive) | > 100 µM (inactive) | > 100 µM (inactive) | – | > 100 µM (inactive) | > 100 µM (inactive) | – |
| CC(C)/C=C1\CCC(CN2CCOCC2)C1=O (stereo not given) | 12.5 µM (inactive) | – | 17.7 µM (inactive) | – | 2.74 µM (inactive) | 18.3 µM (inactive) | 2.69 µM (inactive) | 23.4 µM (inactive) | – |
| COc1ccc(/C=C2\CN(C)Cc3c2nc(N)nc3-c2ccc(OC)cc2)cc1 | > 100 µM (inactive) | > 100 µM (inactive) | – | 65.3 µM (inactive) | 49.5 µM (inactive) | 35 µM (inactive) | 57 µM (inactive) | 95.3 µM (inactive) | – |
| CCCCCCCCCCCCCC(=S)N/C=C/OC | 48 µM (inactive) | – | 35.8 µM (inactive) | 21.7 µM (inactive) | 38.3 µM (inactive) | 24.3 µM (inactive) | 33.4 µM (inactive) | 31.1 µM (inactive) | – |
| CN(C)CCCNc1c2ccccc2nc2cccc([N+](=O)[O-])c12 | 0.0117 µM (active) | 0.01 µM (active) | – | 0.0132 µM (active) | – | 0.01 µM (active) | – | 0.01 µM (active) | – |
| COC1OC(C)C(OC(=O)C(C)(C)C)C(OS(=O)(=O)c2ccc(C)cc2)C1OS(=O)(=O)c1ccc(C)cc1 (stereo not given) | > 100 µM (inactive) | > 100 µM (inactive) | > 100 µM (inactive) | > 100 µM (inactive) | > 100 µM (inactive) | – | > 100 µM (inactive) | > 100 µM (inactive) | – |
| CCCCNC(=NC#N)NCCCC | > 100 µM (inactive) | > 100 µM (inactive) | > 100 µM (inactive) | 55.6 µM (inactive) | > 100 µM (inactive) | > 100 µM (inactive) | > 100 µM (inactive) | 83.4 µM (inactive) | > 100 µM (inactive) |
| COc1ccc(Br)c2c1CC(C(=O)O)CC2 (stereo not given) | > 100 µM (inactive) | > 100 µM (inactive) | > 100 µM (inactive) | > 100 µM (inactive) | > 100 µM (inactive) | > 100 µM (inactive) | > 100 µM (inactive) | – | – |
| O=S(=O)(c1ccccc1)C1CN2OC1(S(=O)(=O)c1ccccc1)CC2c1ccc(Br)cc1 (stereo not given) | – | > 100 µM (inactive) | – | > 100 µM (inactive) | – | 18.6 µM (inactive) | > 100 µM (inactive) | > 100 µM (inactive) | 26.5 µM (inactive) |
| CN(CC(=O)O)S(=O)(=O)c1ccc(Cl)cc1 | – | > 100 µM (inactive) | > 100 µM (inactive) | – | > 100 µM (inactive) | > 100 µM (inactive) | > 100 µM (inactive) | > 100 µM (inactive) | – |
| COc1cccc(C2=NC(C(C)C)CO2)c1 (stereo not given) | > 100 µM (inactive) | > 100 µM (inactive) | – | > 100 µM (inactive) | > 100 µM (inactive) | > 100 µM (inactive) | > 100 µM (inactive) | > 100 µM (inactive) | – |
| COc1ccc2c(c1OC)C(=O)C2 | – | > 100 µM (inactive) | > 100 µM (inactive) | > 100 µM (inactive) | > 100 µM (inactive) | > 100 µM (inactive) | – | > 100 µM (inactive) | – |
| COC1(C)CC2N(C(=O)c3ccccc3)N=C(c3ccccc3)CC2(C)O1 (stereo not given) | – | – | – | > 100 µM (inactive) | > 100 µM (inactive) | > 100 µM (inactive) | 44.5 µM (inactive) | – | > 100 µM (inactive) |
| CCOC(=O)/N=C(\N)SCc1ccccc1 | > 100 µM (inactive) | > 100 µM (inactive) | > 100 µM (inactive) | > 100 µM (inactive) | > 100 µM (inactive) | > 100 µM (inactive) | > 100 µM (inactive) | > 100 µM (inactive) | > 100 µM (inactive) |
| O=C1C(Cl)C(c2ccc(O)cc2)N1n1cnc2ccccc2c1=O (stereo not given) | 49 µM (inactive) | 39.8 µM (inactive) | 49.4 µM (inactive) | 28.2 µM (inactive) | 16.7 µM (inactive) | 33.5 µM (inactive) | 19.1 µM (inactive) | 22.2 µM (inactive) | – |
| Cc1cc(C)nc(Nc2nc3cc([N+](=O)[O-])ccc3[nH]2)n1 | > 100 µM (inactive) | > 100 µM (inactive) | – | > 100 µM (inactive) | > 100 µM (inactive) | > 100 µM (inactive) | > 100 µM (inactive) | – | – |
| CCCCCCCCCCCOC(=S)NC(C)C | 33.9 µM (inactive) | 18.3 µM (inactive) | 27.5 µM (inactive) | 17.8 µM (inactive) | 25.8 µM (inactive) | 16.7 µM (inactive) | 21.4 µM (inactive) | 24.9 µM (inactive) | – |
| COC1/C=C/O[C@@]2(C)Oc3c(C)c(O)c4c(O)c(cc(O)c4c3C2=O)NC(=O)/C(C)=C\C=C\[C@H](C)C(O)[C@@H](C)[C@@H](O)[C@@H](C)[C@H](OC(C)=O)[C@@H]1C (stereo not given in full) | 32.8 µM (inactive) | 17.9 µM (inactive) | 17.7 µM (inactive) | 7.91 µM (inactive) | – | 14.8 µM (inactive) | 10.1 µM (inactive) | 12.1 µM (inactive) | – |
| O=C(/C=N/c1ccccc1[S-])c1ccco1.O=C(/C=N/c1ccccc1[S-])c1ccco1.[Zn+2] | 16.8 µM (inactive) | – | – | 21.2 µM (inactive) | 10 µM (inactive) | – | 4.44 µM (inactive) | – | 17 µM (inactive) |
| COc1ccc(C2Oc3ccc(O)cc3[C@@H]2C)cc1OC (stereo not given in full) | > 100 µM (inactive) | > 100 µM (inactive) | > 100 µM (inactive) | 59.8 µM (inactive) | 71 µM (inactive) | > 100 µM (inactive) | > 100 µM (inactive) | > 100 µM (inactive) | – |
| NC(=O)N1N=C2c3ccccc3CC[C@@H]2C1c1ccccc1 (stereo not given in full) | > 100 µM (inactive) | > 100 µM (inactive) | – | 77.1 µM (inactive) | > 100 µM (inactive) | – | > 100 µM (inactive) | > 100 µM (inactive) | – |
| CCCC1(CC(=O)O)OCCc2c1[nH]c1ccccc21 (stereo not given) [PRODOLIC ACID] | > 100 µM (inactive) | > 100 µM (inactive) | > 100 µM (inactive) | > 100 µM (inactive) | > 100 µM (inactive) | > 100 µM (inactive) | > 100 µM (inactive) | > 100 µM (inactive) | – |

Source: ChEMBL document CHEMBL1201862, “PubChem BioAssay data set” (2004)
